From article PMC7255801, “Disease-associated mutations in the human TRPM3 render the channel overactive via two distinct mechanisms” (eLife, 2020)

Key:
Assay type in all cases: cell-based
hTRPM3α2 P1092Q = molecular target: T1, hTRPM3α2 P1092Q (Homo sapiens, UniProt Q9HCF6, P1115Q); assay: Intracellular Ca2+ assay (GCaMP6f) in 96-well plates, HEK293 cells, P1092Q mutant; details: very high basal Ca2+ levels
T1 construct: host or cells: HEK293
Experimental: (§1) Intracellular Ca^2+ measurements were performed using a Flexstation-3 96‐well plate reader with rapid well injection (Molecular Devices) as described earlier ([Hughes et al., 2019]) with some modifications. Briefly Human Embryonic Kidney 293 (HEK293) cells were purchased from American Type Culture Collection (ATCC), Manassas, VA, (catalogue number CRL-1573), RRID:CVCL_0045; cell identity was verified by STR analysis by ATCC. HEK293 cells were cultured in MEM supplemented with 10% FBS and 100 IU/ml penicillin plus 100 µg/ml streptomycin in 5% CO2 at 37°C. Additional cell authentication was not performed, but passage number of the cells was monitored, and cells were used up to passage number 25–30 from purchase, when a new batch of cells was thawed with low passage number; cells were tested for the lack of mycoplasma infection. HEK293 cells were transfected with hTRPM3α2-GFP, or its mutants (200 ng) and GCaMP6 (1 μg) using the Effectene reagent (Qiagen). […] GCaMP6 signal was measured at excitation wavelengths 485 nm and fluorescence emission was detected at 525 nm. Sampling interval was 0.86 s and four parallel reads were performed for each condition. […] For measurements at 37°C the MEM medium used to culture the cells was replaced with the measurement solution preheated to 37°C, and the plate was placed in the plate reader warmed to 37°C using its built-in temperature controller.

hTRPM3α2 V992M = molecular target: T2, hTRPM3α2 V992M (Homo sapiens, UniProt Q9HCF6, V1015M); assay: Intracellular Ca2+ assay (GCaMP6f) in 96-well plates, HEK293 cells, V992M mutant; details: very high basal Ca2+ levels
T2 construct: host or cells: HEK293
T2 sequence (Q9HCF6 1-1709 isoform Q9HCF6-5 V992M): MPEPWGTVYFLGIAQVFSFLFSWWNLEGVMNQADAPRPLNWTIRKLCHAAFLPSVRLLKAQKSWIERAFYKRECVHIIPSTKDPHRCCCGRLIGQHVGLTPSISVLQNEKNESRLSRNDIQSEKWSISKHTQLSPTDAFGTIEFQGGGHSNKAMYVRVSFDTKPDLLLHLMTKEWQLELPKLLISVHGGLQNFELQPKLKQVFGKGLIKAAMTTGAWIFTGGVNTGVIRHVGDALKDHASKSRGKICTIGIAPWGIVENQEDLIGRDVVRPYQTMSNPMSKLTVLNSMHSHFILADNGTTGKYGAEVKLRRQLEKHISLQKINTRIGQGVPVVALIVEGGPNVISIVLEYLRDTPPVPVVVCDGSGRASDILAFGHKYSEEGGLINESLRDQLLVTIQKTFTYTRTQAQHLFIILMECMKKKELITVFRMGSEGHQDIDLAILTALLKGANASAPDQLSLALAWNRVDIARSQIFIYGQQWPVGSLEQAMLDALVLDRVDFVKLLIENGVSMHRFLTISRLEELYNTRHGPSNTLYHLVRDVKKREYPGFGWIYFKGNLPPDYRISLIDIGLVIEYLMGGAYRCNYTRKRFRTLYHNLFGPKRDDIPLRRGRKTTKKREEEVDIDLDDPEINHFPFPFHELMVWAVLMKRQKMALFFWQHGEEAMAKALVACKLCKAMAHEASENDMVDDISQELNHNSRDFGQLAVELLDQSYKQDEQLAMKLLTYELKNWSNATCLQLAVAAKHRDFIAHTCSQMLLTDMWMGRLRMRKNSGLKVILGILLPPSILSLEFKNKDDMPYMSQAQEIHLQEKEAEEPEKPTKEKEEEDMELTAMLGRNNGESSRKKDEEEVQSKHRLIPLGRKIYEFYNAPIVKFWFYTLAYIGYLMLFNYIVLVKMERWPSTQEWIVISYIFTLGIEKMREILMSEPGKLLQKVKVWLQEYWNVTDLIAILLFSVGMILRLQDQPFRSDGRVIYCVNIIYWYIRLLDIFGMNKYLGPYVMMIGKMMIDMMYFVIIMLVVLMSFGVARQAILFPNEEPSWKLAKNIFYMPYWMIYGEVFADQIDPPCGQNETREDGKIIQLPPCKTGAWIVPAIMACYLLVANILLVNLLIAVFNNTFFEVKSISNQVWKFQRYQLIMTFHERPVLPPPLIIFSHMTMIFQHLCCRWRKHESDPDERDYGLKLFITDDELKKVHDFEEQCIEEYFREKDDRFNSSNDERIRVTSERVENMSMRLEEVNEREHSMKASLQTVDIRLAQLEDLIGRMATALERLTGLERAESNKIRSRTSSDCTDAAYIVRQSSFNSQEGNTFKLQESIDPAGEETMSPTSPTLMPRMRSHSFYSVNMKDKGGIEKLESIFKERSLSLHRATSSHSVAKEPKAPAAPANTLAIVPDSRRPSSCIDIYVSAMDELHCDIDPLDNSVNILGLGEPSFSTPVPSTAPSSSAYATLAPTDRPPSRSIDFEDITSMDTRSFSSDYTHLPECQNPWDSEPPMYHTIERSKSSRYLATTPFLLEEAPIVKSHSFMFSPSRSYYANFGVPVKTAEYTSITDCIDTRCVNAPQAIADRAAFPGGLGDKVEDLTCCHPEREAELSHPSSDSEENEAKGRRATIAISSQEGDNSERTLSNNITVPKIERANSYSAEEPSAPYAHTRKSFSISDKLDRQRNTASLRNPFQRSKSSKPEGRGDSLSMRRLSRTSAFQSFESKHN
Experimental: as §1

[1] = molecular target: T3, human M2 muscarinic receptors co-expressed with hTRPM3_1325 V990M (Homo sapiens, UniProt P08172); assay: M2 muscarinic receptor inhibition of TRPM3 currents, oocytes, V990M mutant; details: 5 μM ACh, 100 mV
T3 construct: expressed in transfected cells; host or cells: Xenopus laevis oocytes (cRNA injection)
T3 sequence (P08172 1-466): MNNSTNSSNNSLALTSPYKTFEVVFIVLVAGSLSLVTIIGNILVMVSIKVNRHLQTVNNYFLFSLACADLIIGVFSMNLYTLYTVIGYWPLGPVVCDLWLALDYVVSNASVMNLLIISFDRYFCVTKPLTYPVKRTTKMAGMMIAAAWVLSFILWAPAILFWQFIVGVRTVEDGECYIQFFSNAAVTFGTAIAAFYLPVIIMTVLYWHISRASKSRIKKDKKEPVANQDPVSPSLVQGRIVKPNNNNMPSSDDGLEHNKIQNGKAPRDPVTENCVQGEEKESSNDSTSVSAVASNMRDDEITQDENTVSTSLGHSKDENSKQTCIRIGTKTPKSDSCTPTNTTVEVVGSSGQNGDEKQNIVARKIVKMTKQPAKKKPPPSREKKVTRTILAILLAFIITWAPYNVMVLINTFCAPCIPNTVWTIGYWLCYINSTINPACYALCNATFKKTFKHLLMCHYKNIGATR
Experimental: (§2) Xenopus laevis oocytes were prepared as described earlier ([Badheka et al., 2015]). All animal procedures were approved by the Institutional Animal Care and Use Committee at Rutgers New Jersey Medical School. In brief, frogs were anesthetized in 0.25% ethyl 3-aminobenzoate methanesulfonate solution (MS222; Sigma-Aldrich); bags of ovaries were removed surgically from the anesthetized frogs. Individual oocytes were obtained by overnight digestion at 16°C in 0.2–0.3 mg/ml type 1A collagenase (Sigma-Aldrich), dissolved in a solution containing 82.5 mM NaCl, 2 mM KCl, 1 mM MgCl2, and […] HEPES, pH 7.4 (OR2 solution). The next day the collagenase containing solution was discarded and the oocytes were washed multiple times with OR2 solution. The oocytes were maintained in OR2 solution supplemented with 1.8 mM CaCl2, 100 IU/ml penicillin, and 100 μg/ml streptomycin at 16°C. cRNA was transcribed from the linearized human TRPM3 (hTRPM3) cDNA clone ([Grimm et al., 2003]), or its mutants in the pGEMSH vector using the mMessage mMachine kit (Thermo Fisher Scientific). cRNA (40 ng) was microinjected into individual oocytes, using a nanoliter-injector system (Warner Instruments). For combined injection of wild-type and mutant TRPM3 for Figures 4E–G, […] total cRNA was injected in a 1:1 ratio. […]

[2] = molecular target: T4, human M2 muscarinic receptors co-expressed with wild-type hTRPM3_1325 (Homo sapiens, UniProt P08172); assay: M2 muscarinic receptor inhibition of TRPM3 currents, oocytes, wild type channel; details: read-out: Inhibition of TRPM3 currents induced by 50 μM PregS
T4 construct: expressed in transfected cells; host or cells: Xenopus laevis oocytes (cRNA injection)
T4 sequence (P08172 1-466): T3 sequence (P08172 1-466)
Experimental: as §2

T1 sequence (Q9HCF6 1-1709 isoform Q9HCF6-5 P1092Q): as the sequence (Q9HCF6 1-1709 isoform Q9HCF6-5 V992M) above, with M992V, P1092Q counted along it

pregnenolone sulfate [PregS]
Ca2+ response to agonist at 37°C (hTRPM3α2 P1092Q): not further increased
Ca2+ response to agonist at 37°C (hTRPM3α2 V992M): not further increased

CC(=O)OCC[N+](C)(C)C [ACh, acetylcholine]
Inhibition of TRPM3 currents induced by 50 μM PregS [1]: essentially not inhibited
inhibition at 5 µM [2]: ~50%
